Measured values reported in patent US20120016124A1, “SEROTONIN REUPTAKE INHIBITORS” (Baylor University, priority 2007, published 2012).

Experiments:
[1] = molecular target: human serotonin transporter (SERT) (Homo sapiens, UniProt P31645); assay: NIH-PDSP transporter binding assay, SERT (3H-Citalopram); settings: for mean % inhibition SERT: Table 4, N=4 determinations, significant inhibition >50%, negative = stimulation of binding; for affinity for SERT: in words, compounds 1b through 7b of Tables 4 and 5
human serotonin transporter (SERT), sequence (P31645 whole entry): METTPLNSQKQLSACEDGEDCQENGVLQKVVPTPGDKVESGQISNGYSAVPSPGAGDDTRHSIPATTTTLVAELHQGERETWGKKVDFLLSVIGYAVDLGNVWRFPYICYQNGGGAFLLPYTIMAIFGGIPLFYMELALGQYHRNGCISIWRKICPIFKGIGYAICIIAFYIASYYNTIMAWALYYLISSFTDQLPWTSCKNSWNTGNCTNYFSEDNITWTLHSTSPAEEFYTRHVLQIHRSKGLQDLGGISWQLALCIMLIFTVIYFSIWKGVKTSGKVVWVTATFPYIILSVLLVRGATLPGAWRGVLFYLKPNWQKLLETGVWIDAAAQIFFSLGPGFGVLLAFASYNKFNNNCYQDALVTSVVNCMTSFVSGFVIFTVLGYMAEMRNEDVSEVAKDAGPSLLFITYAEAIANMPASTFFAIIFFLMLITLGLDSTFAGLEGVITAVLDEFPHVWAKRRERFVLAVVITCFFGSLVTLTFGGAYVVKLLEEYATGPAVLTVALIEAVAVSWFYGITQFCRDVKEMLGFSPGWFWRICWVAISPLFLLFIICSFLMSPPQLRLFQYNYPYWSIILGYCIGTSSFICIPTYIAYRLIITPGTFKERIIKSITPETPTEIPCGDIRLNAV
Source text: (§1) Biological Evaluation of selected compounds was done through the National Institutes of Health Psychoactive Drug Screening Program (NIH-PDSP). Biological evaluation of the synthesized molecules consisted of: (a) Neurotransmitter uptake assays for the human serotonin transporter (SERT), (b) Binding assays for the serotonin receptor 5-HT1A, (c) Binding assays for the serotonin receptor 5-HT2A, and (d) Comparison of the biological data obtained for the synthesized molecules with that of currently used psychotherapeutics.
(§2) All binding assays were carried out with an incubation time of 60 minutes at room temperature. All binding assays were performed in a similar manner, although the buffers used differ from assay to assay.
The assay buffer H contained 50 mM Tris-HCl, […], and 5 mM KCl, at a pH of 7.4. For the peptide receptor binding assay, filters were pre-soaked for 7 days in 0.3% PEI. To perform the assay, a 96-well plate was set up as follows:
(§3) For the 3H-ligands 1-2 nM final concentration of radioligand was used. For 125I-radioligands, 0.05-0.1 nM final concentration was used. The following components were pipetted in the following order: binding buffer, radioligand, cold unknown ligand, cold reference ligand, and membranes. The wells were incubated at room temperature for 60 minutes. At the end of the incubation, the samples were harvested onto pre-soaked (0.3% polyethyleneimine) GF/C filters using a 96-well harvester. They were then washed with 3 quick washes using ice-cold harvest buffer. The filters were removed and air dried overnight. Samples were counted in a 96-well counter using 100 μl of scintillant/well. The Ki value of the reference compound was calculated using the LIGAND Program (Munson and Rodbard, 1980). The percent inhibition was calculated using the following formula: […]

[2] = molecular target: T1, serotonin receptor 5-HT1A (Homo sapiens, UniProt P08908); assay: NIH-PDSP binding assay, 5-HT1A (3H-8-OH-DPAT); settings: for mean % inhibition 5-HT1A: Table 4, N=4 determinations, significant inhibition >50%, negative = stimulation of binding
T1 sequence (P08908 1-422): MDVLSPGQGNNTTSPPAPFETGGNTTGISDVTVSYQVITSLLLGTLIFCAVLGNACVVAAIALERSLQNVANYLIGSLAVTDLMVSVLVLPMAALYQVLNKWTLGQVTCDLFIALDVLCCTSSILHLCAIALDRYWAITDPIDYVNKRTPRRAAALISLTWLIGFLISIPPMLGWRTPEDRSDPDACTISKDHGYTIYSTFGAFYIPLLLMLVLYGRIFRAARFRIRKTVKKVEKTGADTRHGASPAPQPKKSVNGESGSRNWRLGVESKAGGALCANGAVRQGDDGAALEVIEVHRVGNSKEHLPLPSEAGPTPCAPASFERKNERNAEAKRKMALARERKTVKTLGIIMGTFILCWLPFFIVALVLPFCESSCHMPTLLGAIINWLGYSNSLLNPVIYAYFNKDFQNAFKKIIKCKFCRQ
Source text: as §1, §2
(§4) Table 2 below gives the (1) radioligand; (2) assay buffer; (3) unlabelled reference ligand; and (4) references to the commonly-known procedures which were used.
(§5) The assay buffer A was made up of 50 mM Tris-Cl, 0.1 mM EDTA, and 10 mM MgCl2, at a pH of 7.4. To perform the assay, a 96-well plate was set up as follows:
as §3

[3] = molecular target: serotonin receptor 5-HT2A (Homo sapiens, UniProt P28223); assay: NIH-PDSP binding assay, 5-HT2A (3H-ketanserin); settings: for mean % inhibition 5-HT2A: Table 4, N=4 determinations, significant inhibition >50%, negative = stimulation of binding
serotonin receptor 5-HT2A, sequence (P28223 whole entry): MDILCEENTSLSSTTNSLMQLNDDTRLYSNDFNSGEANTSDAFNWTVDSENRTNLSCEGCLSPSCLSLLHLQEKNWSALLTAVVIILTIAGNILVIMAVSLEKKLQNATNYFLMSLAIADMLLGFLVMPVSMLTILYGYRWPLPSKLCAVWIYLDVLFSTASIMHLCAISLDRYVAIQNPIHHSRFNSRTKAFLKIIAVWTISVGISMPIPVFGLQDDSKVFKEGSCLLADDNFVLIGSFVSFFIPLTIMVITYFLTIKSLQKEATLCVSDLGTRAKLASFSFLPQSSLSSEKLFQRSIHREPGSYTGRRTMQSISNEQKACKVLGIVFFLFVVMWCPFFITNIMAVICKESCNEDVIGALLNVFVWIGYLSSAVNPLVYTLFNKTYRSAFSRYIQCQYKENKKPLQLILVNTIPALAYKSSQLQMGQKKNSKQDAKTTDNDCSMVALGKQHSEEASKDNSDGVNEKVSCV
Source text: as §1, §2, §4, §5, §3

5HT1A, 5HT2A, SERT = assay: Preliminary Analysis of Biological Data (NIH-PDSP binding profile); settings: in words; compounds 1b through 7b of Tables 4 and 5
Source text: as §1
Ten (10) of the sixteen (16) compounds synthesized were biologically evaluated. Compounds 10b, 11b and 12b were previously evaluated for their serotonin uptake ability as described in Example 5. For screening purposes, compounds 1b through 7b were analyzed for their affinity towards the serotonin 5-HT1A receptor as well as their affinity towards the 5-HT2A receptor and the SERT. Data in […] represent mean % inhibition (N=4 determinations) for compound tested at receptor subtypes. Significant inhibition is considered >50%. In cases where negative inhibition (−) is seen, this represents a stimulation of binding. Occasionally, compounds at high concentrations will non-specifically increase binding. Ki values were determined only for compounds with % inhibition>50%.

[4] = Table 8, Homologues Type II (Aminopropane Derivatives)
[5] = Table 8, Homologues Type II (Aminopropane Derivatives), — = No significant inhibition
[6] = Table 7, Homologues Type I (Aminoethane Derivatives)
[7] = Table 7, Homologues Type I (Aminoethane Derivatives), — = No significant inhibition
[8] = Table 5, determined only for % inhibition >50%

| SMILES | Ki [1, 4] | Ki [2, 4] | Ki [3, 5] | Ki [1, 6] | also measured |
| --- | --- | --- | --- | --- | --- |
| COc1ccccc1N1CCN(CCC(Oc2ccc(F)cc2)c2ccccc2)CC1 (stereo not drawn) [Compound 22b] | 2440 nM | 4 nM | 761 nM | – | – |
| O=C(CCCN1CCN(CC(Oc2ccc(C(F)(F)F)cc2)c2ccccc2)CC1)c1ccc(F)cc1 (stereo not drawn) [Compound 15b] | – | – | – | 1380 nM | Ki [2, 7]: 2730 nM; Ki [3, 7]: 157 nM |
| Fc1ccc(OC(CN2CCN(c3ccccc3)CC2)c2ccccc2)cc1 (stereo not drawn) [Compound 1] | – | – | – | – | mean % inhibition SERT [1]: 12.0%; mean % inhibition 5-HT1A [2]: 98.0%; Ki [2, 8]: 258 nM; melting point: 80 to 82 °C; mean % inhibition 5-HT2A [3]: 61.0%; Ki [3, 8]: 3490 nM |
| FC(F)(F)c1ccc(OC(CN2CCN(c3ccccc3)CC2)c2ccccc2)cc1 (stereo not drawn) [Compound 2b] | – | – | – | > 10000 nM | Ki [2, 7]: 392 nM |
| O=C(CCCN1CCN(CC(Oc2ccc(F)cc2)c2ccccc2)CC1)c1ccc(F)cc1 (stereo not drawn) [Compound 14b] | – | – | – | 1120 nM | Ki [2, 7]: 1180 nM; Ki [3, 7]: ≥ 10000 nM |
| Fc1ccc(OC(CCN2CCC(c3noc4cc(F)ccc34)CC2)c2ccccc2)cc1 (stereo not drawn) [Compound 30b] | 1690 nM | 8.6 nM | 398 nM | – | – |
| CN1CCN(CCC(Oc2ccc(F)cc2)c2ccccc2)CC1 (stereo not drawn) [Compound 26b] | 2900 nM | > 10000 nM | 1330 nM | – | – |
| COc1ccccc1N1CCN(CC(Oc2ccc(C(F)(F)F)cc2)c2ccccc2)CC1 (stereo not drawn) [Compound 5b] | – | – | – | ≥ 10000 nM | Ki [2, 7]: 22 nM; Ki [3, 7]: > 10000 nM |
| CN1CCN(CCC(Oc2ccc(C(F)(F)F)cc2)c2ccccc2)CC1 (stereo not drawn) [Compound 27b] | 7010 nM | 9560 nM | 1740 nM | – | – |
| FC(F)(F)c1ccc(OC(CCN2CCN(c3cccc(Cl)c3)CC2)c2ccccc2)cc1 (stereo not drawn) [Compound 19b] | 357 nM | 311 nM | 1340 nM | – | – |
| COc1ccccc1N1CCN(CCC(Oc2ccc(C(F)(F)F)cc2)c2ccccc2)CC1 (stereo not drawn) [Compound 23b] | 2200 nM | 42.1 nM | 1420 nM | – | – |
| Fc1ccc(OC(CCN2CCN(c3cccc(Cl)c3)CC2)c2ccccc2)cc1 (stereo not drawn) [Compound 18b] | 289 nM | 11 nM | 94 nM | – | – |
| O=C(CCCN1CCN(CCC(Oc2ccc(F)cc2)c2ccccc2)CC1)c1ccc(F)cc1 (stereo not drawn) [Compound 32b] | 1350 nM | 2640 nM | 420 nM | – | – |
| O=C(CCCN1CCN(CCC(Oc2ccc(C(F)(F)F)cc2)c2ccccc2)CC1)c1ccc(F)cc1 (stereo not drawn) [Compound 33b] | 725 nM | 5010 nM | 406 nM | – | – |
| FC(F)(F)c1ccc(OC(CCN2CCN(c3ncccn3)CC2)c2ccccc2)cc1 (stereo not drawn) [Compound 25b] | 6820 nM | 434 nM | 1790 nM | – | – |
| Fc1ccc2c(C3CCN(CC(Oc4ccc(C(F)(F)F)cc4)c4ccccc4)CC3)noc2c1 (stereo not drawn) [Compound 13b] | – | – | – | 1650 nM | Ki [2, 7]: 1970 nM; Ki [3, 7]: > 10000 nM |
| Fc1ccc(OC(CN2CCN(c3ccccc3)CC2)c2ccccc2)cc1 (stereo not drawn) [Compound 1b] | – | – | – | > 10000 nM | affinity for SERT [1]: low affinity; dual activity towards the 5-HT2A receptor and the SERT (5HT1A, 5HT2A, SERT): desired dual activity towards the 5-HT2A receptor and the SERT, although low; Ki [2, 7]: 99 nM; Ki [3, 7]: 1120 nM |
| O=C(c1ccc(F)cc1)C1CCN(CCC(Oc2ccc(C(F)(F)F)cc2)c2ccccc2)CC1 (stereo not drawn) [Compound 29b] | 1240 nM | 304 nM | 73.7 nM | – | – |
| FC(F)(F)c1ccc(OC(CN2CCN(c3cccc(C(F)(F)F)c3)CC2)c2ccccc2)cc1 (stereo not drawn) [Compound 4b] | – | – | – | 4510 nM | Ki [2, 7]: 1460 nM |
| CN1CCN(CC(Oc2ccc(C(F)(F)F)cc2)c2ccccc2)CC1 (stereo not drawn) [Compound 9b] | – | – | – | 3660 nM | Ki [3, 7]: 405 nM |
| FC(F)(F)c1ccc(OC(CCN2CCN(c3ccccc3)CC2)c2ccccc2)cc1 (stereo not drawn) [Compound 2b] | – | – | – | – | mean % inhibition SERT [1]: 67.0%; Ki [1, 8]: 1870 nM; affinity for SERT [1]: low affinity; dual activity towards the 5-HT2A receptor and the SERT (5HT1A, 5HT2A, SERT): desired dual activity towards the 5-HT2A receptor and the SERT, although low; mean % inhibition 5-HT1A [2]: 91.0%; Ki [2, 8]: 716 nM; mean % inhibition 5-HT2A [3]: 81.0%; Ki [3, 8]: 195 nM |
| Fc1ccc2c(C3CCN(CCC(Oc4ccc(C(F)(F)F)cc4)c4ccccc4)CC3)noc2c1 (stereo not drawn) [Compound 31b] | 718 nM | 420 nM | 23.2 nM | – | – |
| O=C(c1ccc(F)cc1)C1CCN(CCC(Oc2ccc(F)cc2)c2ccccc2)CC1 (stereo not drawn) [Compound 28b] | 6480 nM | 234 nM | 69.6 nM | – | – |
| FC(F)(F)c1ccc(OC(CCN2CCN(c3cccc(C(F)(F)F)c3)CC2)c2ccccc2)cc1 (stereo not drawn) [Compound 21b] | 1330 nM | 193 nM | – | – | – |
| FC(F)(F)c1ccc(OC(CN2CCN(c3cccc(Cl)c3)CC2)c2ccccc2)cc1 (stereo not drawn) [Compound 3] | – | – | – | – | mean % inhibition SERT [1]: 22.0%; mean % inhibition 5-HT1A [2]: 71.0%; Ki [2, 8]: 712 nM; mean % inhibition 5-HT2A [3]: 17.0% |
| Fc1ccc(OC(CCN2CCN(c3ncccn3)CC2)c2ccccc2)cc1 (stereo not drawn) [Compound 24b] | ≥ 10000 nM | 803 nM | 853 nM | – | – |
| Fc1ccc(OC(CCN2CCN(c3cccc(C(F)(F)F)c3)CC2)c2ccccc2)cc1 (stereo not drawn) [Compound 20b] | 330 nM | 20 nM | 747 nM | – | – |
| FC(F)(F)c1ccc(OC(CN2CCN(c3cccc(Cl)c3)CC2)c2ccccc2)cc1 (stereo not drawn) [Compound 3b] | – | – | – | 4930 nM | Ki [2, 7]: 649 nM |
| FC(F)(F)c1ccc(OC(CCN2CCN(c3ccccc3)CC2)c2ccccc2)cc1 (single isomer, unassigned) [Compound 17b] | 761 nM | 315 nM | 605 nM | – | – |
| Fc1ccc(OC(CCN2CCN(c3ccccc3)CC2)c2ccccc2)cc1 (stereo not drawn) [Compound 16b] | 1130 nM | 9 nM | 76 nM | – | mean % inhibition SERT [1]: 62.0%; mean % inhibition 5-HT1A [2]: 100.0%; mean % inhibition 5-HT2A [3]: 96.0% |
